The source of these data is ChEMBL document CHEMBL3627684, “Discovery of spirocyclic-diamine inhibitors of mammalian acetyl CoA-carboxylase” (Bioorg Med Chem Lett, 2015).

A short description of series [1]: Inhibition of acetyl-CoA carboxylase in rat cryopreserved hepatocytes assessed as suppression of de novo lipogenesis. The format is cell-based. The following applies: hepatocyte.
The next series has as its target Acetyl-CoA carboxylase 2 (Homo sapiens, UniProt O00763). In words: Inhibition of recombinant human ACC2 expressed in CHO cells by fluorescence polarization assay. Background: Polarisation of emitted light reports the rotation of a fluorescent probe.
Series [2] is described as follows: Intrinsic clearance in human liver microsomes.
The target in another series is Acetyl-CoA carboxylase 1 (Rattus norvegicus, UniProt P11497). In words: Inhibition of rat liver ACC1 preincubated for 10 mins followed by acetyl-CoA/KHCO3/[14C]-NaHCO3/ATP addition measured after 20 mins by liquid scintillation counting analysis.
Series [3] is described as follows: Plasma clearance in rat. The format is ADME, organism-based.

Sequence of Acetyl-CoA carboxylase 2 (O00763 whole entry): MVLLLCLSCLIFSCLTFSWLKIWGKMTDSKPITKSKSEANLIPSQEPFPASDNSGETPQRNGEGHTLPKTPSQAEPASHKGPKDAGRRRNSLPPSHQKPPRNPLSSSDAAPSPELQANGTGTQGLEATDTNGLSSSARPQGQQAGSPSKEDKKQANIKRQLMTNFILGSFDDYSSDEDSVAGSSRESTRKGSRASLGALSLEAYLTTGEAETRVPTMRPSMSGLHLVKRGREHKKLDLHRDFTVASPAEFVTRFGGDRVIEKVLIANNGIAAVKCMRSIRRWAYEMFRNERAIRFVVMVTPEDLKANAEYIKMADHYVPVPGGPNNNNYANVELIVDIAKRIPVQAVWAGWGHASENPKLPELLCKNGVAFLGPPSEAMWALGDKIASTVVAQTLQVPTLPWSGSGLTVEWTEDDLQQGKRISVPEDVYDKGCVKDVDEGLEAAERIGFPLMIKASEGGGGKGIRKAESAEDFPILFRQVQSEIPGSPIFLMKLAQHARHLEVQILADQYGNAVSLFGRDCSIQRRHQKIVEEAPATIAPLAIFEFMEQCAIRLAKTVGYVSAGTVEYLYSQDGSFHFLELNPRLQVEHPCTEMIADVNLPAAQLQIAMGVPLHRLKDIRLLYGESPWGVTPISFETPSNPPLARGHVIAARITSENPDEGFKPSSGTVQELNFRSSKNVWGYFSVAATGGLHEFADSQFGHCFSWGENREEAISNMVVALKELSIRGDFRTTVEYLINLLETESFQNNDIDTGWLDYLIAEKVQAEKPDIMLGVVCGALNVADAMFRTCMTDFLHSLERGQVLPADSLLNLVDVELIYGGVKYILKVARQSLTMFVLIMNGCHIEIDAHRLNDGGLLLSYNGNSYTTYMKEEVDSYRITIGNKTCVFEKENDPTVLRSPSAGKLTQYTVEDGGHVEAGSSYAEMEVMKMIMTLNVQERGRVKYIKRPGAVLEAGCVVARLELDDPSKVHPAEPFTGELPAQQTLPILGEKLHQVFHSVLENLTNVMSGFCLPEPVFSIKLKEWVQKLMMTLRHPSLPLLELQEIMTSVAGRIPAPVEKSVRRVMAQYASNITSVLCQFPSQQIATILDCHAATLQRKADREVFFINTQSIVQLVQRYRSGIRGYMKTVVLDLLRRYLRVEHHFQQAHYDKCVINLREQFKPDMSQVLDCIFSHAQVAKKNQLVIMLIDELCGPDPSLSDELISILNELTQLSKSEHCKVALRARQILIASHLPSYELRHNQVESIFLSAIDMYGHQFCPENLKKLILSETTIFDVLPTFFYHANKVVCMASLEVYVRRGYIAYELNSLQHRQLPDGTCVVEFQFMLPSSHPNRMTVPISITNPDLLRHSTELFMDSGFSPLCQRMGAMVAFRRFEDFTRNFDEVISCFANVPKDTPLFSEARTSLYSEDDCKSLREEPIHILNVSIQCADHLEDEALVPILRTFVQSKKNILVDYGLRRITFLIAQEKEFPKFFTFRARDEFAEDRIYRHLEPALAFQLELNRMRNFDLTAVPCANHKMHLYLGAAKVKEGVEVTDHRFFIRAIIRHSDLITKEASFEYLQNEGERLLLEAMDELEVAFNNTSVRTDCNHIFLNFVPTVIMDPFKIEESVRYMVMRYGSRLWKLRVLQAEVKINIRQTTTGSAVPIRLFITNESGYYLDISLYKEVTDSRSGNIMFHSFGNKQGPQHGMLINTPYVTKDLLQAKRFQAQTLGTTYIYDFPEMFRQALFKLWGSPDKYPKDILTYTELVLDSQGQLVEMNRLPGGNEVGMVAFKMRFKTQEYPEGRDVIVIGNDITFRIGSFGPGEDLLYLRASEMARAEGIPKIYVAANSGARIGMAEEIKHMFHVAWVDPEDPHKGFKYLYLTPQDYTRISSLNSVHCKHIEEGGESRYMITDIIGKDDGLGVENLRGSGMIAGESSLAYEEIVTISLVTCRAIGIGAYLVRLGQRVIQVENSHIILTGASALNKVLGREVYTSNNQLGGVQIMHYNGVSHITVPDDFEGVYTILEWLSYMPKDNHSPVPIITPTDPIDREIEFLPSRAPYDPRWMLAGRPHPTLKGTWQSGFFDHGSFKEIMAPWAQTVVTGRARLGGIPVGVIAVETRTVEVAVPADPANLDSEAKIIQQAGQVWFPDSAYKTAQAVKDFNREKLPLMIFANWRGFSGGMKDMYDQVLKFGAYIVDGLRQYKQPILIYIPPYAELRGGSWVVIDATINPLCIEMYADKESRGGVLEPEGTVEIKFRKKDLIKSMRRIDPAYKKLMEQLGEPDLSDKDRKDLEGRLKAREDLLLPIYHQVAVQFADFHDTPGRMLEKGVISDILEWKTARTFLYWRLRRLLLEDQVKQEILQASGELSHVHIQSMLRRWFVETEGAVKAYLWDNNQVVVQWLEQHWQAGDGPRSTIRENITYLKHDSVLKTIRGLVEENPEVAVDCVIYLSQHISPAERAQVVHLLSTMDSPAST

One may read the IC50 as the concentration that gives 50% inhibition. Take `CC(C)(C)n1cc2c(n1)C(=O)CC1(CCN(C(=O)c3ccc4[nH]ncc4c3)CC1)O2`: the IC50 in series [1] worked out at 93 nM.
The term CLint scaled denotes a measure of how fast metabolising enzymes remove a compound, apart from limits set by blood flow. On to `Cc1cc(C(=O)N2CCC3(CCN(C(=O)OC(C)(C)C)CC3)C2)cc2cn[nH]c12`, for which the half-maximal inhibitory concentration (IC50) on Acetyl-CoA carboxylase 2 was 2200 nM; against Acetyl-CoA carboxylase 1, 1000 nM. The compound further showed a CLint scaled in series [2] of 94 mL/min/kg.
The like results for `Cc1cc(C(=O)N2CCC3(CCN(C(=O)OC(C)(C)C)C3)CC2)cc2cn[nH]c12` were, in that order, 1000 nM, 510 nM and 32 mL/min/kg.
In the case of `Cc1cc(C(=O)N2CC3(CCN(C(=O)OC(C)(C)C)CC3)C2)cc2cn[nH]c12`, the IC50 at Acetyl-CoA carboxylase 2 stood at 2400 nM; against Acetyl-CoA carboxylase 1, 810 nM. In series [2], this compound showed a CLint scaled of 19 mL/min/kg.
Regarding `Cc1cc(C(=O)N2CCC3(CC2)CN(C(=O)OC(C)(C)C)C3)cc2cn[nH]c12`, the values for the 50% inhibitory concentration (IC50) on Acetyl-CoA carboxylase 2 and at Acetyl-CoA carboxylase 1 were 800 nM and 450 nM, respectively. In series [2], this compound gave a CLint scaled of under 9 mL/min/kg.
For `Cc1cc(C(=O)N2CCC3(CCN(C(=O)OC(C)(C)C)C3)C2)cc2cn[nH]c12` (stereo not drawn), the results for the half-maximal inhibitory concentration (IC50) at Acetyl-CoA carboxylase 2 and on Acetyl-CoA carboxylase 1 were 20000 nM and 11000 nM, respectively.
With `Cc1cc(C(=O)N2CC3(CN(C(=O)OC(C)(C)C)C3)C2)cc2cn[nH]c12`, the IC50 on Acetyl-CoA carboxylase 2 was over 10000 nM; against Acetyl-CoA carboxylase 1, over 30000 nM.
As for `Cc1cc(C(=O)N2CCC3(CC2)CN(C(=O)OCC(C)(C)C)C3)cc2cn[nH]c12`, the half-maximal inhibitory concentration (IC50) is 1400 nM on Acetyl-CoA carboxylase 2 and 310 nM against Acetyl-CoA carboxylase 1.
As for `Cc1cc(C(=O)N2CCC3(CC2)CN(C(=O)O[C@H](C)c2ccccc2)C3)cc2cn[nH]c12`, the IC50 at Acetyl-CoA carboxylase 2 turned out to be 880 nM; at Acetyl-CoA carboxylase 1 it was 310 nM. Further, in series [2], the CLint scaled is 64 mL/min/kg.
For `Cc1cc(C(=O)N2CCC3(CCN(C(=O)OC(C)C)C3)CC2)cc2cn[nH]c12`, the IC50 was 4500 nM at Acetyl-CoA carboxylase 2 and 1600 nM against Acetyl-CoA carboxylase 1.
Consider `Cc1cc(C(=O)N2CCC3(CCN(C(=O)OCC(C)(C)C)C3)CC2)cc2cn[nH]c12`, for which the IC50 at Acetyl-CoA carboxylase 2 came to 800 nM; against Acetyl-CoA carboxylase 1 it was 220 nM. The CLint scaled in series [2] stood at 117 mL/min/kg.
Turning to `Cc1cc(C(=O)N2CCC3(CCN(C(=O)OCc4ccccc4)C3)CC2)cc2cn[nH]c12`, the half-maximal inhibitory concentration (IC50) at Acetyl-CoA carboxylase 2 was determined as 4000 nM; against Acetyl-CoA carboxylase 1, 2100 nM.
On to `Cc1cc(C(=O)N2CCC3(CCN(C(=O)O[C@H](C)c4ccccc4)C3)CC2)cc2cn[nH]c12`, for which the IC50 at Acetyl-CoA carboxylase 2 is 260 nM; at Acetyl-CoA carboxylase 1, 65 nM. This compound gave an intrinsic clearance (CLint scaled) in series [2] of 117 mL/min/kg.
On the same counts, the results for `Cc1cc(C(=O)N2CCC3(CC2C)CN(C(=O)OC(C)(C)C)C3)cc2cn[nH]c12` (stereo not drawn) are 9200 nM, 4800 nM and 46 mL/min/kg.
Regarding `Cc1cc(C(=O)N2CCC3(CC2)CN(C(=O)OC(C)(C)C)C3C)cc2cn[nH]c12` (stereo not drawn), the IC50 on Acetyl-CoA carboxylase 2 turned out to be 900 nM; on Acetyl-CoA carboxylase 1, 240 nM. In series [2], this compound displayed a CLint scaled of 60 mL/min/kg.
Take `Cc1cc(C(=O)N2CCC3(CC2C)C[C@H](C)N(C(=O)OCC(C)(C)C)C3)cc2cn[nH]c12` (stereo partly drawn): the 50% inhibitory concentration (IC50) at Acetyl-CoA carboxylase 2 turned out to be 5500 nM; against Acetyl-CoA carboxylase 1 it was 2200 nM.
The like results for `Cc1cc(C(=O)N2CCC3(CC2C)C[C@@H](C)N(C(=O)OCC(C)(C)C)C3)cc2cn[nH]c12` (stereo partly drawn) were, in that order, 1100 nM and 140 nM.
What is called clearance is the volume of plasma or blood freed of the substance per unit of time. The low end stands for a low capacity for elimination, the high end for a high capacity for elimination. Take `Cc1cc(C(=O)N2CCC3(CC2)CCN(C(=O)OCC(C)(C)C)[C@H]3C)cc2cn[nH]c12`: the half-maximal inhibitory concentration (IC50) in series [1] is 300 nM; at Acetyl-CoA carboxylase 2 it was 110 nM; on Acetyl-CoA carboxylase 1, 16 nM. This compound yielded a clearance in series [3] of 52 mL/min/kg. Besides, in series [2], the CLint scaled stood at 106 mL/min/kg.
With `Cc1cc(C(=O)N2CCC3(CC2)CCN(C(=O)OCC(C)(C)C)[C@@H]3C)cc2cn[nH]c12`, the IC50 on Acetyl-CoA carboxylase 2 amounted to 200 nM; at Acetyl-CoA carboxylase 1, 26 nM.
`Cc1cc(C(=O)N2CCC3(CCN(C(=O)OC(C)(C)C)C3)CC2C)cc2cn[nH]c12` (stereo in doubt; 3.3.1): the half-inhibitory concentration (IC50) on Acetyl-CoA carboxylase 2 was over 14000 nM; against Acetyl-CoA carboxylase 1 it was 7900 nM.
As to `Cc1cc(C(=O)N2CCC3(CCN(C(=O)OC(C)(C)C)C3)CC2C)cc2cn[nH]c12` (stereo in doubt; 3.3.2), the concentration for half-maximal inhibition (IC50) was over 17000 nM on Acetyl-CoA carboxylase 2 and 9300 nM on Acetyl-CoA carboxylase 1.
